Results: US12146155B2, “Method for constructing human pluripotent stem cell-derived liver organoid having enhanced drug metabolic potential and liver organoid constructed by same method” (KOREA RESEARCH INSTITUTE OF CHEMICAL TECHNOLOGY, priority 2021, dated 2024)
Each block holds one molecule with its values, some of them ahead of it.

Columns and labels:
[1] = test system: hiPSC-CM not cultured with liver organoids; assay: MEA electrophysiology of hiPSC-CMs without liver organoids; assay type: cell-based, human
Method: (§1) Specifically, the electrical activity of Cardiosight®-S (NEXEL Co., South Korea), the hiPSC-CM, was measured using an MEA system (Axion BioSystems, Maestro, US) at 37° C. and perfused with 5% CO2, 20% O2, and 75% N2. The hiPSC-CMs were first seeded in a 12-well MEA plate at the density of 4×10^4 cells per well and maintained for 7 days in a cardiomyocyte culture medium provided by NEXEL Co. to stabilize with half-mid changes performed every 2 days. One week later, the culture medium was replaced with a liver organoid differentiation medium (DM). Transwell inserts (Corning) were then placed in each well, and FC-treated S(−)-HO was seeded in the inserts, followed by culture for 3 days. On the day of compound application, the culture medium was completely removed from the wells and inserts and fresh medium was added to ensure the correct volume per well (2 m ? /well total). Cells were allowed to equilibrate for 4 hours, and online parameters were monitored to ensure a stable baseline for at least 40 minutes. The cells were exposed to cyclophosphamide at a single dose per well. After application of the drug or control (0.1% DMSO), field potentials were measured every 5 minutes for 30 seconds for 72 hours. The field potential signals were recorded and analyzed using Axion BioSystems' integrated studio (AxIS) software to measure the beating frequency and field potential duration. […]

[2] = test system: hiPSC-derived cardiomyocytes (hiPSC-CMs) co-cultured with FC-treated S(−)-HO
Method: as §1

[3] = test system: HepG2; assay: Fimasartan metabolite formation (LC-MS/MS); assay type: in vitro ADME, human; settings: 50 μM FMS for 24 hours
Method: 70 μ ? of medium was collected at 3, 6, 12 and 24 hours, respectively, and the reaction was quenched by adding 70 μ ? of ice-cold ACN containing 100 nM BR-A-563 as an internal standard. The samples were centrifuged at 16,000 g for 10 minutes at 4° C. and the supernatant was applied to liquid chromatography-tandem mass spectrometry (LC-MS/MS). Data were normalized to protein concentration.

[4] = biological target: T1, MRP2 (Homo sapiens, UniProt Q92887); assay: CDFDA staining of liver organoids with or without transporter inhibitor; assay type: cell-based; settings: 2 mM probenecid for 3 hours; D(−)-HO and S(−)-HO
T1 construct: endogenous in cells; host or cells: human iPSC-derived liver organoids (D(−)-HO, S(−)-HO)
T1 sequence (Q92887 whole entry): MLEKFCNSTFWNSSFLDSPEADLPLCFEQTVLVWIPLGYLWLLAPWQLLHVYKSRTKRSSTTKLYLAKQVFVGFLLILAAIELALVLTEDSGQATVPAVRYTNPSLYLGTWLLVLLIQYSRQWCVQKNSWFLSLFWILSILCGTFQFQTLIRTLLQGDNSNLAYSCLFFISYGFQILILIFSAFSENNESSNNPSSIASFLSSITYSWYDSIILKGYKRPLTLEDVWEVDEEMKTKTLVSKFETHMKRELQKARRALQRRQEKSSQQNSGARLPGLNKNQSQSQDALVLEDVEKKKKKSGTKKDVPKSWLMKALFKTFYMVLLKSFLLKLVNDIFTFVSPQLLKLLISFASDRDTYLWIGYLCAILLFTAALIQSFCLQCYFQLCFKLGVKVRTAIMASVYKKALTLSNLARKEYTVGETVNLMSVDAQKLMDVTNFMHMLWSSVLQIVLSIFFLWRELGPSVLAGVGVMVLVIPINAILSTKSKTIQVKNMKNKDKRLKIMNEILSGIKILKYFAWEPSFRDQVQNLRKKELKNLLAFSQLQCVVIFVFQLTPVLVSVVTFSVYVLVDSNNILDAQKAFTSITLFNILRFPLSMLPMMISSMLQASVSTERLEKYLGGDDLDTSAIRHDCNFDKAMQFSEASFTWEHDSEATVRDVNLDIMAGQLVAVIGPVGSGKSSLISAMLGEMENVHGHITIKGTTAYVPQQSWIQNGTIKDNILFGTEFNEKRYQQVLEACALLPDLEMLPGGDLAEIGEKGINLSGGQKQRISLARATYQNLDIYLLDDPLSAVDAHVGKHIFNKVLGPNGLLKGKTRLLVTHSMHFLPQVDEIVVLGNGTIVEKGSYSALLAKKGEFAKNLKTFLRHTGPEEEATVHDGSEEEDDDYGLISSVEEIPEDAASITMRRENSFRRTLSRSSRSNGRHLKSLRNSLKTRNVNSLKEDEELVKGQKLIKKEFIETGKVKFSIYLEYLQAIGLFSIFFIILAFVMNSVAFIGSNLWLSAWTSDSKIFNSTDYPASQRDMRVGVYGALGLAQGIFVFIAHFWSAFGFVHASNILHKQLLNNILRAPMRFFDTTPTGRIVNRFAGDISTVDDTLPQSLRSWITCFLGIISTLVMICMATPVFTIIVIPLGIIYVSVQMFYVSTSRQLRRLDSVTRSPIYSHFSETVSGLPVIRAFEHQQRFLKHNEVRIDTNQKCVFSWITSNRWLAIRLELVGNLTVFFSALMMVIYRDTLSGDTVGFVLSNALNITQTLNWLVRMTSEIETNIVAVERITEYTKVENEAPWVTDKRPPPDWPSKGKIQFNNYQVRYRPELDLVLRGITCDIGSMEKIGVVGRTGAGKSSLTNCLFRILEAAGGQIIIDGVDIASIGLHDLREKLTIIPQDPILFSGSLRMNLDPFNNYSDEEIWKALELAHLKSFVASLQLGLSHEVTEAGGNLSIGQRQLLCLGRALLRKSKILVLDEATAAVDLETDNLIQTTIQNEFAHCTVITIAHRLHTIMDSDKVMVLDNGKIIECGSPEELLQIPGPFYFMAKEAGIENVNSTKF
Method: Specifically, the liver organoids were recovered on Matrigel and washed three times with DPBS. For CDFDA (5(6)-carboxy-2′,7′-dichlorofluorescein diacetate) staining, the liver organoids treated with or without 2 mM probenecid for 3 hours were stained with 10 μM CDFDA (Sigma-Aldrich) for 15 minutes at 37° C., 5% CO2. […] All samples were washed three times with DPBS, stained with Hoechst 33342, and observed under an Olympus FV3000 confocal microscope.

[5] = test system: HepG2 and 2D HLC; assay: Acetaminophen metabolite formation (LC-MS/MS); assay type: in vitro ADME, human; settings: 10 mM APAP
Method: Specifically, to measure the metabolites of APAP, reactions were performed in PHH, D-HO, S-HO, HepG2, and 2D HLC treated with 10 mM APAP for 24 hours at 37° C. in 5% CO2. APAP was treated to a final volume of 0.7 m ? per well in each 24-well culture plate. 70 μ ? of medium was collected at 3, 6, 12 and 24 hours, respectively, and the reaction was quenched by adding 70 μ ? of ice-cold ACN containing 100 nM BR-A-563 as an internal standard. The samples were centrifuged at 16,000 g for 10 minutes at 4° C. and the supernatant was applied to liquid chromatography-tandem mass spectrometry (LC-MS/MS). Data were normalized to protein concentration.

- time to spontaneous beating cessation after addition [1]: ≤ 30 min
Structure (SMILES): CC(C)(C)c1ccc(C(O)CCCN2CCC(C(O)(c3ccccc3)c3ccccc3)CC2)cc1 (stereo not drawn) [terfenadine, Terfenadine]

- production of BR-A-535, a 3-step metabolite of FMS by CYP3A4 [3]: not observed
Structure (SMILES): CCCCc1nc(C)c(CC(=S)N(C)C)c(=O)n1Cc1ccc(-c2ccccc2-c2nnn[nH]2)cc1 [FMS, Fimasartan]

- APAP-GSH amount of metabolites [5]: no metabolites were detected
Structure (SMILES): CC(=O)Nc1ccc(O)cc1 [acetaminophen, Acetaminophen]

Second part, the molecule before the results:

Structure (SMILES): O=P1(N(CCCl)CCCl)NCCCO1 (stereo not drawn) [CP, Cyclophosphamide]
- field potential duration corrected by beating frequency (FPDcF) ([2]; 250 μM, after 24 and 72 hours): increased
- beating rate ([2]; 250 and 500 μM for 24 and 72 hours, compared to hiPSC-CM alone): significantly reduced

Structure (SMILES): CCCN(CCC)S(=O)(=O)c1ccc(C(=O)O)cc1 [probenecid]
- MRP2-specific fluorescence (CDFDA) when transporter blocked [4]: accumulated in the lumen of the liver organoids
